The values below come from patent US20240059740A1, “CYCLIC PEPTIDES AND USES THEREOF” (PRE[…] INC., priority 2020, published 2024).

The target of one assay is T1, recombinant MMP-2 (Homo sapiens, UniProt P08253).
T1 construct: purchased ab139446
T1 sequence (P08253 110-660): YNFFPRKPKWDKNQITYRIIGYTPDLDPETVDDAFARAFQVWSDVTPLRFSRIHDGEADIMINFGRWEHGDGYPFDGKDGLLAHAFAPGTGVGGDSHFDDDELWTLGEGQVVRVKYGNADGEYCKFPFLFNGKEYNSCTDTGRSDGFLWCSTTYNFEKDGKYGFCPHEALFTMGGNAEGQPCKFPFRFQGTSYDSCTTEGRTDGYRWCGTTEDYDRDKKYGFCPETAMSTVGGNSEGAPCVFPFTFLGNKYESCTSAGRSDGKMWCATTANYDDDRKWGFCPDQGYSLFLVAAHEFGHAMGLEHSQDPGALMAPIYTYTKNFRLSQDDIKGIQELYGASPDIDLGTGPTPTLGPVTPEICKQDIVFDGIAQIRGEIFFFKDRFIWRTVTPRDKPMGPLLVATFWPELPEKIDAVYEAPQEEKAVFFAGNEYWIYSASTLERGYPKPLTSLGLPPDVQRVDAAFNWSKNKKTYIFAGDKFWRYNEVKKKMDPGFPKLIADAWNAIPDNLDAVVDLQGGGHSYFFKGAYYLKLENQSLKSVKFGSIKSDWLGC
Description: MMP-2 Inhibitor Screening Assay Kit (colorimetric). Type of assay: biochemical. The procedure:
MMP-2 is an important target for inhibitor screening due to its involvement in cancer growth, angiogenesis, and metastasis. The MMP-2 screening assay was carried out with a commercially available MMP-2 Inhibitor Screening Assay Kit (Colorimetric, Catalog: ab139446) based on the manufacturers protocol. This assay is based on quantification of recombinant MMP-2 activity using a colorimetric assay (MMP-2 degrades a chromogenic substrate). The assay provides NNGH (N-isobutyl-N-(4-methoxyphenylsulfonyl) glycyl hydroxamic acid), a small molecule inhibitor, as a positive control (NNGH). […] Each determination was run in duplicate.
% Inhibition rate=(Vinhibitor/Vcontrol)×100
Briefly, MMP Substrate and MMP Inhibitor were warmed to room temperature to thaw DMSO. MMP Inhibitor (NNGH), MMP-2 substrate and MMP-2 enzyme were diluted with assay buffer to required concentration. 20 μL of MMP-2 enzyme and MMP-2 inhibitor (peptides, Chlorotoxin and NNGH) was added, then 50 μL of assay buffer was added and the reaction mixture incubated at 37° C. for 1 h. After incubation, 10 μL of MMP Substrate was added to start reaction. The reactions were continuously read at 412 nm in a microplate reader. Data was recorded at 1 min. time intervals for 10 to 20 min. The data as was plotted as optical density (OD) versus time for each sample. The reaction velocity (V) was obtained in OD/min: determine the slope of a line fit to the linear portion of the data plot using an appropriate routine. Then using the equation above the inhibitor % activity remaining was calculated. The control was without inhibitor.

For the next assay, the system named is 081024 cells. Description: BME cell invasion assay, 081024. The format is cell-based, human. The settings on record: 24 h. The procedure: To assess whether the ability of SEQ ID NO.1 to inhibit MMP-2 activity and, to a lesser extent, reduce the production of matrix proteinases and downregulate the expression of EMT markers, was of functional consequence in reducing the invasiveness of the GBM cells, the ability of the peptide was tested at the concentrations of 1, 10 and 100 μM (none of which are toxic to cells) to inhibit invasion of the GBM cells through a basement membrane. This assay, described in more detail below, is an in vitro surrogate for measurement of the in vivo invasion by tumour cells of their environment.
The cell invasion assay employs a simplified Boyden chamber-like design that consists of two chambers separated by a filter (an 8 μm polycarbonate (PC) membrane) coated with basement membrane or different extracellular matrix components. The cell suspension is placed in the top chamber and incubated in the presence of test media containing specific chemo-attractants in the bottom chamber. Cells migrate from the top chamber to the bottom of the filter by degrading the coating over the filter pores. Detection of cell invasion is quantified using Calcein AM. Cell dissociation/Calcein AM solution is placed in the bottom chamber to dissociate the migrating cells from the filter. Calcein AM is internalized by the cells, and intracellular-esterases cleave the aceto-methylester (AM) moiety. Free Calcein fluoresces brightly and is used to quantitate the number of cells that have invaded or migrated by comparison with a standard curve (In Vitro Technologies Pty Ltd, (https://lifescience.invitro.com.au/brands/r-and-d-systems/).
The filter was coated with PathClear® growth factor reduced BME. The selected peptides were applied to the cells in both upper and lower wells to make sure the concentration of peptides were the same and the chemoattractant was serum at a concentration of 2% (for adherent U87 & U251 cells) or growth factor mix required in the medium (for non- adherent, 081024 oncospheres).
Cell invasion was determined using CultureCoat® 96 Well Medium BME Cell Invasion assay. Briefly, the cells were pre-starved 24 h before harvest. Then seeding 25,000 per well of cell in the upper chamber with serum free medium together different concentration of peptide. The bottom chamber also added different concentration of peptides with 2% (V/V) serum for GBM adherent cells or growth factor mix for neurosphere cells as chemoattractant. After 24 h incubation, the invading cells were measured by Calcein AM and calculated based on standard curve.
The results are shown in Table 12, the results are expressed as % inhibition.

Residues, ends and D or L forms follow the SMILES beside them.

On to `CC(C)C[C@@H]1NC(=O)[C@H](C)NC(=O)[C@@H](NC(=O)[C@@H]2CCCN2C(=O)[C@@H](N)CC(C)C)CSSC(C)(C)CNC(=O)CC[C@@H](C(=O)N[C@@H](CCCNC(=N)N)C(N)=O)NC(=O)[C@H](CC(=O)O)NC(=O)[C@H](CC(N)=O)NC1=O` [SEQ ID NO: 1, Leu-Pro-c(SSA*-Ala-Leu-Asn-Asp-Glu)-Arg-NH2] (HELM PEPTIDE1{L.P.C.A.L.N.D.E.R.[am]}|CHEM1{[CC(C)(CN[*:2])S[*:1]]}$PEPTIDE1,CHEM1,3:R3-1:R1|PEPTIDE1,CHEM1,8:R3-1:R2$$$V2.0; N-terminus assumed), for which the remaining activity at 1 µM on recombinant MMP-2 (1 μM, 1 h preincubation at 37° C., lower value = higher inhibitory activity, read-out: % inhibition (Vinhibitor/Vcontrol ×100)) turned out to be 81%. Moreover, the remaining activity at 10 µM at recombinant MMP-2 (10 μM, lower value = higher inhibitory activity, read-out: % inhibition (Vinhibitor/Vcontrol ×100)) came to 75.2%. Also, the remaining activity at 100 µM at recombinant MMP-2 (100 μM, lower value = higher inhibitory activity, read-out: % inhibition (Vinhibitor/Vcontrol ×100)) came out at 66.9%. In addition, the “inhibition of MMP-2 activity (in words)” value at recombinant MMP-2 (1 to 100 μM) is “dose dependent ability to inhibit MMP-2 activity”. Also, the “Invasion Inhibition Index (%)” value with 081024 cells (1 μM, listed as SEQ ID NO. 1) is given as 39.9%; with 081024 cells (1 μM, listed as SEQ ID NO.1), “fairly comparable to that of Chlorotoxin”; in the assay on 081024 cells (10 μM), 50.8%; in the assay on 081024 cells (100 μM), 58.3%.
